Experimental data from patent EP0109255A2, “Glycerol derivatives” (ONO PHARMACEUTICAL CO., LTD., priority 1982, dated 1984).

Tested on: mice
Assay: Acute toxicity by intravenous administration (tail vein)
Assay type: in vivo
Description: On the other hand, it was confirmed that the acute toxicity of all extent of the compounds of the present invention was more. than 30 mg/kg by intravenous administration. Therefore, glycerol derivatives of the present invention may be considered to be sufficiently safe and suitable for medical use. For example, the mortality (dead/used) in glycerol derivatives of the present invention, i.e. compounds prepared in Example 8, 8(j) and 8(r) was 2/10, 0/10 and 0/10, respectively, when each glycerol compound was intravenously administered to tail vein in ten mice at the dose of 30 mg/kg.

SMILES | mortality (dead/used) (mouse, in vivo, iv, 30 mg/kg) | mortality (dead/used) (intravenously administered to tail vein in ten mice at the dose of 30 mg/kg)
CCCCCCCCCCCCCCCCOCC(COCCCC[N+](C)(C)C)NC(=O)c1ccccc1 (stereo not drawn) [Example 8] | 2/10 | –
CCCCCCCCCCCCCCCCOCC(COCCCC[N+](C)(C)C)NC(=O)NCCC (stereo not drawn) [8 (r)] | 0/10 | –
CCCCCCCCCCCCCCCCOCC(COCCCC[N+](C)(C)C)NC(=O)OCCCC (racemic) [8 (j), (2RS)-l-0-hexadecyl-2-dehydroxy-2-butoxycarbonylamino-3-0-[4-(N,N,N-trimethylammonio)butyl]glycerol iodide] | – | 0/10
